Results from patent US6844353B2, “Fungicidal properties of sampangine and its analogs to agriculturally important fungal plant pathogens” (The United States of America as represented by the …, priority 2003, dated 2005).
Like-named read-outs stand apart in the source and are kept apart here.

What was measured:
Test in all cases: 96-well microtiter plate assay, fungal growth inhibition
[1] = tested on: F. oxysporum; assay type: cell-based, Fusarium oxysporum; conditions: for inhibition at 0.3 µM / inhibition at 3 µM / inhibition at 30 µM: Fusarium oxysporum, read-out: Percent inhibition−Percent Stimulation±SEM; for Percent inhibition−Percent Stimulation±SEM: F. oxysporum
From the text: (§1) Pathogen production. Isolates of Colletotrichum acutatum Simmonds, Colletotrichum fragariae Brooks, and Colletotrichum gloeosporioides (Penz.) Penz. & Sacc. in Penz. were obtained from B. J. Smith, USDA, ARS, Small Fruit Research Station, Poplarville, Miss. Colletotrichum fragariae (isolate CF63), C. acutatum (isolate CAGoff), and C. gloeosporioides (isolate CG162) were used for all pathogen and bioautography studies. Isolate CF63 is one of the most virulent isolates at infecting strawberry plants and inducing both crown and fruit rot (Smith and Black, 1990). CF63, CAGoff, and CG162 were used as standard test isolates because of our extensive knowledge of these isolates and their known fungicide sensitivity profiles in both bioautography and microtiter formats. The three Colletotrichum species were isolated from strawberry (Fragaria x ananassa Duchesne). Botrytis cinerea Pers.: Fr, was isolated from commercial grape (Vitis vinifera L.) and Fusarium oxysporum Schlechtend: Fr from orchid (Cynoches sp.). Phomopsis viticola (Sacc.) and P. obscurans (Ellis & Everh.) Sutton were from Mike A. Ellis, Ohio State University, Wooster, Ohio. Fungi were grown on potato-dextrose agar (PDA, Difco, Detroit, Mich.) in 9 cm petri dishes and incubated in a growth chamber at 24±2° C. and under cool-white fluorescent lights ([…]·m^−2·sec^−1 light) with 12 hour photoperiod.
(§2) Inoculum preparation. Conidia were harvested from 7-10 day-old cultures by flooding plates with 5 mL of sterile distilled water and dislodging conidia by softly brushing the colonies with an L-shaped glass rod. Conidial suspensions were filtered through sterile miracloth (Calbiochem-Novabiochem Corp., La Jolla, Calif.) to remove mycelia. Conidia concentrations were determined photometrically, from a standard curve based on the percent of transmittance (% T) at 625 nm and suspensions were then adjusted with sterile distilled water to a concentration of 1.0×10^6 conidia/mL.
(§3) Microtiter assay. A standardized 96-well microtiter plate assay developed for discovery of natural product fungicidal agents was used to evaluate naturally occurring antifungal agents from Macaranga monanara. A 96-well microtiter assay was used to determine sensitivity of B. cinerea, C. acutatum, C. fragariae, C. gloeosporioides, F. oxysporum, Phomopsis viticola, and P. obscurans to the various antifungal agents in comparison with known fungicidal standards. Vinclozolin, captan, and thiabendazole, which represent three different modes of action, were used as standards in this experiment. Each fungus was challenged in a dose-response format using test compounds where the final treatment concentrations were 0.3, 3.0 and 30.0 μM. Microtiter plates (Nunc MicroWell, untreated; Roskilde, Denmark) were covered with a plastic lid and incubated in a growth chamber as described previously for fungal growth. Growth was then evaluated by measuring absorbance of each well at 620 nm using a microplate photometer (Packard Spectra Count, Packard Instrument Co., Downers Grove, Ill.). Microtiter plates (Nunc MicroWell, untreated; Roskilde, Denmark) were covered with a plastic lid and incubated in a growth chamber at 24±1° C. and 12 hour photoperiod under 60±5 μmol light. Growth was then evaluated by measuring absorbance of each well at 620 nm using a microplate photometer (Packard Spectra Count, Packard Instrument Co., Downers Grove, Ill.).
(§4) Microbioassy Experimental Design. Chemical sensitivity each of B. cinerea, C. acutatum, C. fragariae, C. gloeosporiodes, F. oxysporum, Phomopsis viticola, and P. obscurans was evaluated using 96-well plate microbioassay format. Each chemical was evaluated in duplicate at each dose (0.3, 3.0 and 30.0 μM). […]

[2] = tested on: C. acutatum; assay type: cell-based, Colletotrichum acutatum; conditions: for inhibition at 0.3 µM / inhibition at 3 µM / inhibition at 30 µM: Colletotrichum acutatum, read-out: Percent inhibition−Percent Stimulation±SEM; for Percent inhibition−Percent Stimulation±SEM: C. acutatum
From the text: as §1, §2, §3, §4

[3] = tested on: B. cinerea; assay type: cell-based, Botrytis cinerea; conditions: for inhibition at 0.3 µM / inhibition at 3 µM / inhibition at 30 µM: Botrytis cinerea, read-out: Percent inhibition−Percent Stimulation±SEM; for Percent inhibition−Percent Stimulation±SEM: B. cinerea
From the text: as §1, §2, §3, §4

[4] = tested on: C. fragariae; assay type: cell-based, Colletotrichum fragariae; conditions: for inhibition at 0.3 µM / inhibition at 3 µM / inhibition at 30 µM: Colletotrichum fragariae, read-out: Percent inhibition−Percent Stimulation±SEM; for Percent inhibition−Percent Stimulation±SEM: C. fragariae
From the text: as §1, §2, §3, §4

[5] = tested on: C. gloeosporioides; assay type: cell-based, Colletotrichum gloeosporioides; conditions: for inhibition at 0.3 µM / inhibition at 3 µM / inhibition at 30 µM: Colletotrichum gloeosporioides, read-out: Percent inhibition−Percent Stimulation±SEM; for Percent inhibition−Percent Stimulation±SEM: C. gloeosporioides
From the text: as §1, §2, §3, §4

SMILES: Cc1cc(C2CC2)nc(Nc2ccccc2)n1 [Cyprodinil]
- inhibition at 0.3 µM ([1]; 48 h): -5.4 ± 4.8%
- inhibition at 3 µM ([1]; 48 h): 16.9 ± 5.5%
- inhibition at 30 µM ([1]; 48 h): 69.1 ± 4.6%
- inhibition at 0.3 µM ([1]; 72 h): -5.1 ± 2.8%
- inhibition at 3 µM ([1]; 72 h): 6.2 ± 2.5%
- inhibition at 30 µM ([1]; 72 h): 31.3 ± 4.9%
- inhibition at 0.3 µM ([2]; 48 h): 99.8 ± 0.2%
- inhibition at 3 µM ([2]; 48 h): 98.6 ± 0.6%
- inhibition at 30 µM ([2]; 48 h): 98.7 ± 0.5%
- inhibition at 0.3 µM ([2]; 72 h): 85.1 ± 4.3%
- inhibition at 3 µM ([2]; 72 h): 99.3 ± 2.2%
- inhibition at 30 µM ([2]; 72 h): 97.9 ± 0.3%
- inhibition at 0.3 µM ([3]; 48 h): 75.3 ± 21%
- inhibition at 3 µM ([3]; 48 h): 29.4 ± 31.3%
- inhibition at 30 µM ([3]; 48 h): 2.5 ± 31.6%
- inhibition at 0.3 µM ([3]; 72 h): 61.3 ± 24.4%
- inhibition at 3 µM ([3]; 72 h): 51.3 ± 30%
- inhibition at 30 µM ([3]; 72 h): 27.3 ± 28.2%
- inhibition at 0.3 µM ([4]; 48 h): 98 ± 1.6%
- inhibition at 3 µM ([4]; 48 h): 91.3 ± 1.3%
- inhibition at 30 µM ([4]; 48 h): 91.1 ± 7%
- inhibition at 0.3 µM ([4]; 72 h): 82.6 ± 6.2%
- inhibition at 3 µM ([4]; 72 h): 83.7 ± 1.8%
- inhibition at 30 µM ([4]; 72 h): 93 ± 0.4%
- inhibition at 0.3 µM ([5]; 48 h): 84.3 ± 2.3%
- inhibition at 3 µM ([5]; 48 h): 91.3 ± 1.3%
- inhibition at 30 µM ([5]; 48 h): 91.1 ± 7%
- inhibition at 0.3 µM ([5]; 72 h): 55.7 ± 4.6%
- inhibition at 3 µM ([5]; 72 h): 83.7 ± 1.8%
- inhibition at 30 µM ([5]; 72 h): 93 ± 0.4%

SMILES: N#CC(CCc1ccc(Cl)cc1)(Cn1cncn1)c1ccccc1 (stereo not drawn) [Fenbucanazole]
- Percent inhibition−Percent Stimulation±SEM ([1]; 0.3 μM, 48 hrs): −15.3 ± 2.6%
- Percent inhibition−Percent Stimulation±SEM ([1]; 0.3 μM, 72 hrs): −10.4 ± 2.7%
- Percent inhibition−Percent Stimulation±SEM ([1]; 3.0 μM, 48 hrs): −33.1 ± 4.2%
- Percent inhibition−Percent Stimulation±SEM ([1]; 3.0 μM, 72 hrs): −29.3 ± 2.6%
- Percent inhibition−Percent Stimulation±SEM ([1]; 30 μM, 48 hrs): −45.5 ± 3.4%
- Percent inhibition−Percent Stimulation±SEM ([1]; 30 μM, 72 hrs): −44.5 ± 2.5%
- Percent inhibition−Percent Stimulation±SEM ([2]; 0.3 μM, 48 hrs): 13.0 ± 5.8%
- Percent inhibition−Percent Stimulation±SEM ([2]; 0.3 μM, 72 hrs): 16.3 ± 5.4%
- Percent inhibition−Percent Stimulation±SEM ([2]; 3.0 μM, 48 hrs): −3.8 ± 4.8%
- Percent inhibition−Percent Stimulation±SEM ([2]; 3.0 μM, 72 hrs): −89.9 ± 6.8%
- Percent inhibition−Percent Stimulation±SEM ([2]; 30 μM, 48 hrs): −39.2 ± 3.3%
- Percent inhibition−Percent Stimulation±SEM ([2]; 30 μM, 72 hrs): −21.7 ± 5.8%
- Percent inhibition−Percent Stimulation±SEM ([3]; 0.3 μM, 48 hrs): −46.0 ± 34.2%
- Percent inhibition−Percent Stimulation±SEM ([3]; 0.3 μM, 72 hrs): −49.6 ± 24.7%
- Percent inhibition−Percent Stimulation±SEM ([3]; 3.0 μM, 48 hrs): −35.9 ± 28.3%
- Percent inhibition−Percent Stimulation±SEM ([3]; 3.0 μM, 72 hrs): −47.0 ± 23.0%
- Percent inhibition−Percent Stimulation±SEM ([3]; 30 μM, 48 hrs): 17.6 ± 52.2%
- Percent inhibition−Percent Stimulation±SEM ([3]; 30 μM, 72 hrs): −29.9 ± 24.2%
- Percent inhibition−Percent Stimulation±SEM ([4]; 0.3 μM, 48 hrs): −26.8 ± 14.1%
- Percent inhibition−Percent Stimulation±SEM ([4]; 0.3 μM, 72 hrs): 19.0 ± 7.7%
- Percent inhibition−Percent Stimulation±SEM ([4]; 3.0 μM, 48 hrs): −37.0 ± 15.3%
- Percent inhibition−Percent Stimulation±SEM ([4]; 3.0 μM, 72 hrs): 4.7 ± 4.2%
- Percent inhibition−Percent Stimulation±SEM ([4]; 30 μM, 48 hrs): −99.3 ± 1.1%
- Percent inhibition−Percent Stimulation±SEM ([4]; 30 μM, 72 hrs): −97.7 ± 0.6%
- Percent inhibition−Percent Stimulation±SEM ([5]; 0.3 μM, 48 hrs): −86.1 ± 1.4%
- Percent inhibition−Percent Stimulation±SEM ([5]; 0.3 μM, 72 hrs): −59.1 ± 3.6%
- Percent inhibition−Percent Stimulation±SEM ([5]; 3.0 μM, 48 hrs): −95.0 ± 1.1%
- Percent inhibition−Percent Stimulation±SEM ([5]; 3.0 μM, 72 hrs): −98.1 ± 0.4%
- Percent inhibition−Percent Stimulation±SEM ([5]; 30 μM, 48 hrs): −99.0 ± 0.7%
- Percent inhibition−Percent Stimulation±SEM ([5]; 30 μM, 72 hrs): −99.6 ± 0.2%

SMILES: CC1(C(=O)Nc2ccc(O)c(Cl)c2Cl)CCCCC1 [Fenhexamid]
- inhibition at 0.3 µM ([1]; 48 h): 3 ± 4.4%
- inhibition at 3 µM ([1]; 48 h): 15.3 ± 1.7%
- inhibition at 30 µM ([1]; 48 h): 28.5 ± 1.3%
- inhibition at 0.3 µM ([1]; 72 h): -0.1 ± 2.8%
- inhibition at 3 µM ([1]; 72 h): 3.7 ± 2.6%
- inhibition at 30 µM ([1]; 72 h): 21.2 ± 2.1%
- inhibition at 0.3 µM ([2]; 48 h): -21.6 ± 6.7%
- inhibition at 3 µM ([2]; 48 h): -6.5 ± 4.9%
- inhibition at 30 µM ([2]; 48 h): 13.8 ± 5.3%
- inhibition at 0.3 µM ([2]; 72 h): -20.4 ± 5.6%
- inhibition at 3 µM ([2]; 72 h): -21.8 ± 4.3%
- inhibition at 30 µM ([2]; 72 h): 1.5 ± 6.7%
- inhibition at 0.3 µM ([3]; 48 h): 82.9 ± 31.5%
- inhibition at 3 µM ([3]; 48 h): 34.2 ± 29.1%
- inhibition at 30 µM ([3]; 48 h): 49.2 ± 32.1%
- inhibition at 0.3 µM ([3]; 72 h): 71.4 ± 24.7%
- inhibition at 3 µM ([3]; 72 h): 42.7 ± 20.6%
- inhibition at 30 µM ([3]; 72 h): 40.9 ± 22.6%
- inhibition at 0.3 µM ([4]; 48 h): -30.2 ± 10%
- inhibition at 3 µM ([4]; 48 h): -13.6 ± 6.3%
- inhibition at 30 µM ([4]; 48 h): 19.9 ± 3.4%
- inhibition at 0.3 µM ([4]; 72 h): -12 ± 6.7%
- inhibition at 3 µM ([4]; 72 h): -9.9 ± 4.3%
- inhibition at 30 µM ([4]; 72 h): 19.5 ± 5.4%
- inhibition at 0.3 µM ([5]; 48 h): -21.6 ± 9%
- inhibition at 3 µM ([5]; 48 h): -32.5 ± 6.4%
- inhibition at 30 µM ([5]; 48 h): -0.3 ± 3%
- inhibition at 0.3 µM ([5]; 72 h): -11.3 ± 5.5%
- inhibition at 3 µM ([5]; 72 h): -16 ± 2%
- inhibition at 30 µM ([5]; 72 h): 6.5 ± 4.2%
